Measurements published in patent publication US20250302882A1, “PHARMACEUTICAL COMPOSITION FOR PREVENTING OR TREATING NEURODEGENERATIVE DISEASE, CONTAINING, AS ACTIVE INGREDIENTS, CYCLODEXTRIN AND STEM CELLS IN WHICH VEGF IS OVEREXPRESSED” (KYUNGPOOK NATIONAL UNIVERSITY INDUSTRY-ACADEMIC COOPERATION …, priority 2017, published 2025).

Columns and labels:
[1] = introduced into SVZ; Application No. 10-2017-0015676; cited from earlier work
NP-C mice [2] = experiment: Survival rate of NP-C mice; format: in vivo; conditions: VEGFNP-C mice (brain cell-specific VEGF-overexpressed NP-C mice); cyclodextrin 4000 mg/kg once a week s.c.; compared to NP-C mice given cyclodextrin alone
Source text: (§1) In Balb/C (Orient, wild type), NPC mutant mice in which an NPC1 gene is deleted (RIKEN, received from Japan, NP-C mice; a weight was smaller than that of normal mice with the same week old, a serious mobility loss was shown from 4 to 6 week old to show tremors and seizures of the limbs, and a lifespan was approximately 9 to 10 weeks), and brain cell-specific VEGF-overexpressed NP-C mice (VEGFNP-C mice; produced through mating of VEGFtg mice overexpressing VEGF in a brain cell-specific promoter (received from University of Heidelberg, Germany, Yaoming Wang et al., (2005)) and NP-C mice, a lifespan was approximately 9 to 10 weeks like the NP-C mice, and brain inflammation and lipid accumulation were alleviated as compared to the NP-C mice), systems thereof were kept by genotyping through PCR. The mice were disposed in a test group by using a block randomization method. In order to eliminate prejudice, […]. All mice tests were approved by Kyungpook National University Institutional Animal Care and Use Committee (IACUC).
(§2) Administration of cyclodextrin (Sigma, H107) and VEGF-overexpressed neural stem cells was performed on a schedule as illustrated in FIG. 1. Specifically, NP-C mice or VEGFNP-C mice were subcutaneously injected with cyclodextrin by 4000 mg/kg from 1 week old. […]

NP-C mice [3] = experiment: Change in weight of NP-C mice; format: in vivo; conditions: VEGFNP-C mice; cyclodextrin 4000 mg/kg once a week s.c.; compared to NP-C mice given cyclodextrin alone
Source text: as §1, §2

NP-C mice [4] = experiment: Mobility by Rota-rod and Beam tests; format: in vivo; conditions: for each week age
Protocol: (§3) Administration of cyclodextrin (Sigma, H107) and VEGF-overexpressed neural stem cells was performed on a schedule as illustrated in FIG. 1. Specifically, NP-C mice or VEGFNP-C mice were subcutaneously injected with cyclodextrin by 4000 mg/kg from 1 week old. When the NP-C mice injected with the cyclodextrin were 4-week-old, a cannula was mounted in a subventricular zone (SVZ) for combined injection into the SVZ of the VEGF-overexpressed neural stem cells, and the VEGF-overexpressed neural stem cells (to 1×10^6 cell/3 ul) were injected into the SVZ twice a week. A cell injection rate was implanted at a flow rate of 0.3 μl/min.
In order to confirm the mobility of a mouse in each test group, Rota-rod and Beam tests were performed. In the Rota-rod test (Ugo Basile, Comerio, VA, Italy), a Rota-rod movement was performed three times or more at a rotation rate of 4 rpm using a machine equipped with a rod of a diameter of 3 cm which was appropriately processed for providing a grip, and then an endurance time of a test animal was measured in units of second and an average value thereof was recorded. […] In the Beam test, a mouse was placed on a starting point of a rod of a width of 6 mm or 12 mm and then a time taken to move to an end point was measured. […]

NP-C mice [5] = experiment: Inflammatory response of the cortex by GFAP (astrocyte) staining; format: in vivo; conditions: 10-week-old
Protocol: as §3
(§4) The brain tissue (cortex or cerebellum) of a mouse was cut to a thickness of 50 μm using vibratome, and then cultured with anti-GFAP (rabbit, 1:500, DAKO) and anti-Calbindin (rabbit, 1:100, milipore). In addition, filipin staining (Polysciences, Inc.) was performed on tissues of each organ from the mouse to confirm the accumulation degree of cholesterol. Cortex, cerebellum, liver, lung, kidney, and spleen sites were analyzed using a laser scanning confocal microscope or an Olympus BX51 microscope equipped with Fluoview SV1000 imaging software (Olympus FV1000, Japan). A percentage of an area of a stained area to an area of total tissues was quantified using Metamorph software (Molecular Devices). […]

NP-C mice [6] = experiment: Inflammatory response of the cerebellum by GFAP (astrocyte) staining; format: in vivo; conditions: 10-week-old
Protocol: as §3, §4

NP-C mice [7] = experiment: Cerebellar neural cells by Calbindin staining (Purkinje neuron); format: in vivo; conditions: VEGFNP-C mice; 10-week-old
Protocol: as §3, §4

NP-C mice [8] = experiment: Lipid accumulation (sphingosine, sphingomyelin) in cortex, cerebellum and organs, UPLC; format: in vivo; conditions: VEGFNP-C mice, 10-week-old
Protocol: as §3
The cortex, the cerebellum, and organs (liver, lung, kidney, spleen, etc.) of each mouse were extracted, added with a homogeneous buffer solution containing 50 mM HEPES (Invitrogen), a 150 mM sodium chloride solution (NaCl) (Sigma), 0.2% Igepal CA-630 (Sigma), and a protease inhibitor (Milipore), homogenized using a homogenizer, and then centrifuged at 13,000 rpm for 10 minutes. After 10 minutes, additional centrifugation was performed at 13,000 rpm for 30 minutes. […] A dry lipid extract obtained above was resuspended in 0.2% Igepal CA-630 (Sigma), and then the concentration of each lipid was measured using a UPLC system. […]

NP-C mice [9] = experiment: Cholesterol accumulation by Amplex red assay and Filipin staining; format: in vivo; conditions: VEGFNP-C mice; 10-week-old; cortex, cerebellum and organs
Protocol: as §3, §4

Substance | medicinal effect by improvement of an SVZ environment [1] | survival rate (NP-C mice [2]) | weight (NP-C mice [3]) | mobility (Rota-rod and Beam tests) (NP-C mice [4]; NP-C mice) | mobility (Rota-rod and Beam tests) (NP-C mice [4]; VEGFNP-C mice) | inflammatory response (GFAP: astrocyte) in the cortex (NP-C mice [5]; NP-C mice) | inflammatory response (GFAP: astrocyte) in the cortex (NP-C mice [5]; VEGFNP-C mice) | inflammatory response (GFAP: astrocyte) in the cerebellum (NP-C mice [6]; NP-C mice) | inflammatory response (GFAP: astrocyte) in the cerebellum (NP-C mice [6]; VEGFNP-C mice) | reduced neural cells (Calbindin: Purkinje neuron) in the cerebellum (NP-C mice [7]) | sphingosine accumulated in the cortex and the cerebellum (NP-C mice [8]) | sphingomyelin accumulation (NP-C mice [8]; liver, lung, kidney, spleen, cortex and cerebellum) | accumulation of cholesterol (NP-C mice [9])
VEGF | could not be achieved | – | – | – | – | – | – | – | – | – | – | – | –
cyclodextrin | – | significantly increased | significantly increased | improved mobility compared to NP-C mice | most effective | somewhat alleviated | more effectively improved | alleviated to a certain level | more effectively alleviated | most efficiently increased | most effectively reduced | most effectively reduced | more reduced
